Here are results for 23 compounds from PMC6668346 (Journal of medicinal chemistry, 2018).

SMILES strings stand for the structures. Several values for one entry are separate records, joined by “and”; a condition that tells them apart may be missing. Equal values may be shown once. A value given as a limit tells only on which side of the number the result lay.

In one assay the test system is LAT1.
Test: not given
As to conditions: Xenopus laevis oocytes; cited from earlier work.
Take `N[C@@H](Cc1ccccc1)C(=O)O` [Compound 50, L-phenylalanine, reference compound]: the Km is 14.2 µM. For the compound `N[C@H](Cc1ccccc1)C(=O)O` [Compound 50-D, D-Phe], the Km is 121 µM.

Another assay deals with T1, human LAT1 (Homo sapiens, UniProt Q01650).
T1 sequence (Q01650 whole entry): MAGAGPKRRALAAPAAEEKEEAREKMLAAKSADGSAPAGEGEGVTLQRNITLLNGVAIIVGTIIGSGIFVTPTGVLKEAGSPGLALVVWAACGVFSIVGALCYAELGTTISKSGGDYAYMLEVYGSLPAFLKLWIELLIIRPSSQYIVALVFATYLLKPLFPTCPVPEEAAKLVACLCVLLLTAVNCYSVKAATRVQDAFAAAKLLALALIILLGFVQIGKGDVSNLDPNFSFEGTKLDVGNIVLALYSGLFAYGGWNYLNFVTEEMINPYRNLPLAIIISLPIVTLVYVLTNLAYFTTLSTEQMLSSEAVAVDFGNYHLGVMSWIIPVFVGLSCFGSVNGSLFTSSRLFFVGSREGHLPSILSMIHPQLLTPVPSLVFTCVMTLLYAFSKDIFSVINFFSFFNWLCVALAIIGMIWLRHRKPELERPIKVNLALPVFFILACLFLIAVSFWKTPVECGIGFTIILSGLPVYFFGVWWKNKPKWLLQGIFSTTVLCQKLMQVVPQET
T1 sequence (P08195 102-630 partner): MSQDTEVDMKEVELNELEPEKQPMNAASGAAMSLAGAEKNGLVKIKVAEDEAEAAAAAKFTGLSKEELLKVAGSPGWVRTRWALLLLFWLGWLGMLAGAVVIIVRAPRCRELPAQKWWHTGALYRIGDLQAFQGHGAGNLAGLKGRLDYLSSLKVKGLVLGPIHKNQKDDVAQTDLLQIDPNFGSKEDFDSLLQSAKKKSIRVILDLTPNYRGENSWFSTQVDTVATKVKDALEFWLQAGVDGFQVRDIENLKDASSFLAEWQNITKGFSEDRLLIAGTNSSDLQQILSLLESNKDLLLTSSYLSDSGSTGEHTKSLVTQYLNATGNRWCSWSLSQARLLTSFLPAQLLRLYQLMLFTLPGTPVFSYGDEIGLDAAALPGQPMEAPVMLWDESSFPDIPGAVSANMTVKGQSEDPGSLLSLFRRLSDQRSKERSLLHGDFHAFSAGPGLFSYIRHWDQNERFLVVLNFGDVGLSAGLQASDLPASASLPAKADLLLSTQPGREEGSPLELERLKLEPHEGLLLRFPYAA
Test: not given
In kind it is cell-based. As to conditions: 200 μM, 3 min; average of seven experiments.
With `N[C@@H](Cc1ccccc1)C(=O)O` [Compound 50, L-phenylalanine, reference compound], the “efflux rate of [3H]-gabapentin” value was 2.7 fmol/min and 2.7 ± 0.3 fmol/min.

The same assay, now with this note: based on trans-stimulation assay.
For the compound `CC(N)(Cc1ccccc1)C(=O)O` (stereo in doubt) [Compound 92-D, α-methyl phenylalanine], the “LAT1 substrate activity (in words)” value is listed as “substrates”. Regarding `NCCCC[C@H](N)C(=O)O` [Compound 55, L-Lys, reference compound], the “LAT1 substrate activity (in words)” value was “none of which were LAT1 substrates”. For the compound `N[C@@H](CCC(=O)O)C(=O)O` [Compound 57, L-Glu, reference compound], the “LAT1 substrate activity (in words)” value is reported as “none of which were LAT1 substrates”.

Take `N[C@@H](Cc1cn(Cc2ccccc2)cn1)C(=O)O` [Compound 59, benzyl histidine]: the “LAT1 substrate activity (in words)” value was “substrates”. The same measure, in the same setting: to `COC(=O)c1cc(C)cc(C[C@H](N)C(=O)O)c1` [Compound 63] belongs “lost activity relative to their parent compounds”.

For `Cc1cc(C[C@H](N)C(=O)O)cc(C(=O)O)c1` [Compound 64], the “LAT1 substrate activity (in words)” value is on record as “lost activity relative to their parent compounds”. For the compound `NCc1cccc(C[C@H](N)C(=O)O)c1` [Compound 74], the “LAT1 substrate activity (in words)” value is “LAT1 substrates”. Still for that read-out and setting: to `COC(=O)c1cccc(C[C@@H](N)C(=O)O)c1` [Compound 79-D] belongs “potentially not a substrate”; to `CC(C)(C)OC(=O)c1cccc(C[C@H](N)C(=O)O)c1` [Compound 81], “substrates of LAT1”. Same read-out and setting: to `N[C@@H](Cc1cccc(C(=O)OCCO)c1)C(=O)O` [Compound 82] belongs “substrates of LAT1”; to `N[C@@H](Cc1cccc(C(=O)O)c1)C(=O)O` [Compound 83], “LAT1 substrates”; to `N[C@@H](Cc1cccc(CC(=O)O)c1)C(=O)O` [Compound 84], “nonsubstrates”. Take `C[C@](N)(Cc1ccccc1)C(=O)O` [Compound 92, α-methyl phenylalanine]: the “LAT1 substrate activity (in words)” value is recorded as “substrates”. The same measure, in the same setting: to `NC(Cc1ccccc1)(Cc1ccccc1)C(=O)O` [Compound 93] belongs “inactive”; to `CSCC[C@@](N)(Cc1ccccc1)C(=O)O` [Compound 98-D], “lost all activity”. With `N[C@@](Cc1ccccc1)(Cc1c[nH]cn1)C(=O)O` [Compound 107], the “LAT1 substrate activity (in words)” value is “inactive”.

For another assay, the target named is T1, human LAT1. Kind of assay: cis-inhibition assay: inhibition of [3H]-gabapentin uptake into HEK-hLAT1 cells. The format is cell-based. As to conditions: L vs D isomer.
Turning to `CC[C@H](C)[C@H](N)C(=O)O` [Compound 47, L-Ile], the “selectivity for the L isomers in cis-inhibition assay” value (shortened to “selectivity … in cis-inhibition assay”) was over 20 fold.

For `CC(C)[C@H](N)C(=O)O` [Compound 49, L-Val], the “selectivity … in cis-inhibition assay” value is over 20 fold.

Turning to `N[C@@H](Cc1c[nH]cn1)C(=O)O` [Compound 53, L-histidine], the “selectivity … in cis-inhibition assay” value is over 20 fold.

Still in this assay, the particulars now being: cis-inhibition.
Turning to `N[C@@H](Cc1cccc(Cc2ccccc2)c1)C(=O)O` [Compound 69], the “LAT1 ligand potency / affinity (in words)” value was “the most potent ligands”. On the same count and under the same terms, the entry for `N[C@@H](Cc1cccc(-c2ccccc2)c1)C(=O)O` [Compound 70] is “the most potent ligands”.
